Measured values as given in the NIST ThermoML archive (doi:10.1021/je100972k).
“And” between values parts separate entries of the source, which are not always exact repeats. Identical values can stand only once.

Details: Crystal

[F-].[F-].[F-].[F-].[Zr+4] [zirconium(IV) fluoride]
Details | vapor or sublimation pressure
685 K | 8.13e-06 kPa
689 K | 8.13e-06 kPa
690 K | 1.05e-05 kPa
693 K | 1.05e-05 kPa and 1.62e-05 kPa
698.5 K | 1.62e-05 kPa
699 K | 1.55e-05 kPa and 2.4e-05 kPa
704 K | 1.2e-05 kPa
705 K | 3.24e-05 kPa
706.5 K | 2.4e-05 kPa
707 K | 3.09e-05 kPa
709 K | 3.09e-05 kPa
709.5 K | 2.82e-05 kPa
711 K | 4.9e-05 kPa
711.5 K | 1.62e-05 kPa
712.5 K | 2.4e-05 kPa
713 K | 4.17e-05 kPa
713.5 K | 3.24e-05 kPa
715 K | 2.04e-05 kPa
717 K | 6.46e-05 kPa and 2.4e-05 kPa
719 K | 3.63e-05 kPa
720 K | 4.9e-05 kPa and 3.47e-05 kPa and 2.82e-05 kPa
720.5 K | 5.25e-05 kPa
721 K | 3.24e-05 kPa
723.5 K | 4.9e-05 kPa
724 K | 6.46e-05 kPa and 4.68e-05 kPa
724.5 K | 4.68e-05 kPa
725.5 K | 4.07e-05 kPa and 3.63e-05 kPa
726.5 K | 4.07e-05 kPa
728.5 K | 9.33e-05 kPa and 0.000112 kPa
729 K | 6.46e-05 kPa
729.5 K | 8.91e-05 kPa
730 K | 8.32e-05 kPa and 6.92e-05 kPa
731.5 K | 5.62e-05 kPa and 4.9e-05 kPa
732 K | 6.92e-05 kPa and 5.62e-05 kPa
734.5 K | 0.000112 kPa
735 K | 8.91e-05 kPa
735.5 K | 0.000162 kPa
736 K | 0.00012 kPa and 9.33e-05 kPa
737 K | 0.000117 kPa and 8.13e-05 kPa and 6.46e-05 kPa
737.5 K | 0.000145 kPa and 7.24e-05 kPa
739.5 K | 0.000135 kPa
740.5 K | 0.000155 kPa and 9.33e-05 kPa
741 K | 0.000112 kPa
742 K | 0.000219 kPa
743 K | 0.000141 kPa and 0.000105 kPa and 8.91e-05 kPa
743.5 K | 0.000162 kPa and 9.77e-05 kPa
746.5 K | 0.000224 kPa and 0.000209 kPa and 0.000204 kPa
748 K | 0.000162 kPa
748.5 K | 0.000282 kPa and 0.00012 kPa
749 K | 0.000151 kPa and 0.000129 kPa
750 K | 0.000145 kPa
750.5 K | 0.000209 kPa
751 K | 0.00024 kPa
751.5 K | 0.000251 kPa
753 K | 0.000209 kPa and 0.000158 kPa
754 K | 0.000324 kPa and 0.000209 kPa
754.5 K | 0.000372 kPa and 0.00017 kPa
755 K | 0.000178 kPa
756 K | 0.000288 kPa and 0.000417 kPa and 0.000302 kPa
756.5 K | 0.000302 kPa
757 K | 0.000302 kPa
757.5 K | 0.000251 kPa
758 K | 0.000195 kPa
759 K | 0.000257 kPa
760 K | 0.000234 kPa and 0.000219 kPa
760.5 K | 0.000363 kPa
763 K | 0.000513 kPa [middle of 4 runs]
764 K | 0.000234 kPa
765 K | 0.000347 kPa
765.5 K | 0.000302 kPa
766 K | 0.000468 kPa [middle of 5 runs]
766.5 K | 0.000457 kPa
769 K | 0.000741 kPa and 0.000437 kPa
770.5 K | 0.000447 kPa
771.5 K | 0.000363 kPa
772 K | 0.000537 kPa and 0.000407 kPa
773 K | 0.000417 kPa
774 K | 0.000891 kPa and 0.000427 kPa
775 K | 0.000646 kPa
777.5 K | 0.000603 kPa
778 K | 0.000525 kPa and 0.000501 kPa
779 K | 0.000724 kPa
781 K | 0.00055 kPa
783 K | 0.000646 kPa
783.5 K | 0.000933 kPa
784 K | 0.000813 kPa
785 K | 0.000646 kPa
786 K | 0.001 kPa
788 K | 0.00145 kPa
789 K | 0.000813 kPa
789.5 K | 0.00102 kPa
791 K | 0.000977 kPa
792 K | 0.00129 kPa
793 K | 0.00129 kPa
794 K | 0.00105 kPa
798 K | 0.00148 kPa and 0.00123 kPa and 0.00126 kPa
799 K | 0.00234 kPa
801 K | 0.00186 kPa and 0.0017 kPa
802 K | 0.00155 kPa
803 K | 0.00166 kPa
803.5 K | 0.00186 kPa
807 K | 0.00209 kPa
808 K | 0.00295 kPa
810.5 K | 0.0024 kPa
811 K | 0.00275 kPa and 0.00209 kPa
815 K | 0.00295 kPa
818 K | 0.00389 kPa
821 K | 0.0038 kPa
823 K | 0.00617 kPa
828 K | 0.00562 kPa
